Experimental data taken from patent publication US8569524B2, “Bis(tetrahydrofuran) compound, method for production of the compund, and use of the compound” (Glytech Inc., priority 2007, dated 2013).

Tested on: Pheochromocytoma (PC12) cells
Test: Neurite outgrowth activity test in PC12 cells in the presence of NGF
Type: cell-based
Conditions: in the presence of DMSO and NGF (20 ng/ml), compared with the sample without compound, micrographs
Protocol: When the solvent was ethanol, the concentrations were targeted at 1 mM, 0.1 mM, and […]. A sample at 1 mM concentration was prepared first. When the amount of sample was 1 mg, the sample was dissolved in 100% ethanol (1/molecular weight×1,000)/2 ml, and an equal amount of Milli-Q (1/molecular weight×1,000)/2 ml was added thereto, after which the sample was filtered through a […] into a sample tube.
A sample at 0.1 mM concentration was prepared by diluting 1 mM solution 10-fold with 50% ethanol. Likewise, a sample at […] concentration was prepared from 0.1 mM solution.
When the solvent was DMSO, the concentrations were targeted at 10 mM, 1 mM, and 0.1 mM.
When the sample is prepared in ethanol, the sample is diluted 100-fold with the medium; and when the sample is prepared in DMSO, the sample is diluted 1,000-fold in the medium. The actual concentrations of the sample were thus […] both when the sample was prepared in ethanol and when the sample was prepared in DMSO.
Measurement was carried out using the following equipment and software.
Statistical processing of obtained data was carried out using “Origin ver. 7.0” (OriginLab, USA) and Mac Statistical Analysis. The significant difference was determined using Student's T-test and Dunnett's T-test.
Pheochromocytoma (PC12) cells were purchased from the Health Science Research Resources Bank of the Japan Health Sciences Foundation. Cell number: JCRB0733, product name: PC-12.
PC12 cells were cultivated in a medium having a composition including DMEM/10% HS, 5% FBS, 50 IU/ml penicillin, and […], in a culture flask coated with rat tail-derived collagen, in an incubator (95% humidity, 5% carbon dioxide). When the cell density becomes obviously too low, or when the cells overproliferate, the cells would be under load, requiring a longer time for proliferation and/or causing the cells to dye out. Thus, the cells were subcultured such that the cells would be present at a density of about 80% in the flask. When cells were subcultured or when activity evaluation tests were carried out, the cells were treated with trypsin (0.25%, 5 min.) to obtain a cell suspension, which was then seeded into a collagen-coated culture flask or plate.
The condition of the PC12 cells was observed; it was confirmed that at least 50% of the PC12 cells were fused. The plate was coated with rat tail-derived collagen; on the following day, the plate was washed twice with Milli-Q water. Then, a medium having a composition including DMEM/10% HS, 5% FBS, 50 IU/ml penicillin, and […] was prepared.
The medium in the culture flask was removed by suction. The PC12 cells were washed twice with PBS (5 mL), and trypsin (3 mL) was added thereto, which was then left to stand for about 5 minutes. A cell suspension was obtained by pipetting. In order to inhibit the activity of the trypsin, the cell suspension was transferred to a 50 mL centrifuge tube containing a serum-containing medium (2 mL). The total amount was adjusted to 10 mL with PBS, and the cell suspension was centrifuged (1,000 rpm×5 min). After centrifuging, the supernatant liquid was removed by suction using a pump, PBS (10 mL) was added thereto, and pipetting was carried out several times using a bent-tip Komagome pipette. After pipetting, the cell suspension was centrifuged again, and a similar operation was repeated twice. […]

With CO[C@@]1(C)C[C@@H]2OCC3=CCCCC32O1 (some centres unmarked) [Compound 1C-2-1] the neurite outgrowth activity (1 μM compound) was “further enhanced neurite outgrowth activity” and the neurite outgrowth activity (10 μM compound) was “further enhanced neurite outgrowth activity”.
CO[C@]1(C)C[C@@H]2OCC3=CCCCC32O1 (some centres unmarked) [Compound 1D-2-1] was tested, and the neurite outgrowth activity (1 μM compound) was “further enhanced neurite outgrowth activity” and the neurite outgrowth activity (10 μM compound) was “further enhanced neurite outgrowth activity”.
CCO[C@]1(C)C[C@@H]2OCC3=CCCC[C@]32O1 [Compound 1D-2-3] was tested, and the neurite outgrowth activity (10 μM compound) was “further enhanced neurite outgrowth activity”.
